The values that follow come from patent publication US20090023704A1, “Novel Compounds 737” (ASTRAZENECA AB, priority 2007, published 2009).

The test concerns the target T1, GABAB receptor (GABABR1a/GABABR2 heterodimer) (Homo sapiens, UniProt O75899+Q9UBS5).
T1 construct: expressed in transfected cells
As to the kind of experiment: [35S]-GTPγS binding assay, potency of PAM (GABA dose-response curves with and without test compound). The format is biochemical. The note with it: potency of the positive allosteric modulator; GABA dose-response in presence of test compound. Summed up:
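Membranes from human GABABR1a/GABABR2-expressing cell lines, one with a GABABR1a-Gαqi5mut fusion, were incubated at 30 °C for 45 min, pH 7.4, with 10 μM GDP and 0.53 nM [35S]-GTPγS. GABA (0.1 nM–1 mM) was added with or without PAM, and EC50 was obtained by 4-parameter logistic fit after filtration and scintillation counting.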
On the technique in general: Binding of GTPγS marks nucleotide exchange on a G protein.

T1 sequence (Q9UBS5 15-961 limits assumed): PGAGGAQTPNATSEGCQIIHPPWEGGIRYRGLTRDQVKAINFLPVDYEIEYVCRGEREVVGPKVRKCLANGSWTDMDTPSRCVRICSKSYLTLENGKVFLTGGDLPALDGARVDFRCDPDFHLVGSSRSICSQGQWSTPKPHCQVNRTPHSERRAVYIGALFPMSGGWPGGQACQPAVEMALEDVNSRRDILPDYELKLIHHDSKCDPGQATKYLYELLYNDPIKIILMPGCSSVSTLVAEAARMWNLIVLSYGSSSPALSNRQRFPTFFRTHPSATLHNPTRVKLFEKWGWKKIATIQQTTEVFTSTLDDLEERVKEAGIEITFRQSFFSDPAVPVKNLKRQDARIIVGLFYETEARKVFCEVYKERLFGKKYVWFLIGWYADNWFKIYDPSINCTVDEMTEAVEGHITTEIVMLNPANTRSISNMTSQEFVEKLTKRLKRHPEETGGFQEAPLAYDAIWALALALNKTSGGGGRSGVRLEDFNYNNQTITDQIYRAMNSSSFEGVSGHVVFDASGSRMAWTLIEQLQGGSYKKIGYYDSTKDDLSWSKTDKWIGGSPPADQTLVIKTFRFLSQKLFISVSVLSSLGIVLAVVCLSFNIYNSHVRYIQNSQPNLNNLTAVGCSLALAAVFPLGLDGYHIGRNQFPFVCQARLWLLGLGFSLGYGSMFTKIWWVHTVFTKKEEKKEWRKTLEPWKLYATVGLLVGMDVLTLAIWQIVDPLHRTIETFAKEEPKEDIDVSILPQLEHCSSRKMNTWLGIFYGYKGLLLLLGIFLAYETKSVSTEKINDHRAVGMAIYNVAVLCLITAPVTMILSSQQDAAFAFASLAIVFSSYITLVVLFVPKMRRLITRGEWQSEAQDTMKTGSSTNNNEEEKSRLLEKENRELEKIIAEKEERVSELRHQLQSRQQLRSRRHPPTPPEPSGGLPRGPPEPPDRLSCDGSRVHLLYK
T1 sequence (O75899 42-941): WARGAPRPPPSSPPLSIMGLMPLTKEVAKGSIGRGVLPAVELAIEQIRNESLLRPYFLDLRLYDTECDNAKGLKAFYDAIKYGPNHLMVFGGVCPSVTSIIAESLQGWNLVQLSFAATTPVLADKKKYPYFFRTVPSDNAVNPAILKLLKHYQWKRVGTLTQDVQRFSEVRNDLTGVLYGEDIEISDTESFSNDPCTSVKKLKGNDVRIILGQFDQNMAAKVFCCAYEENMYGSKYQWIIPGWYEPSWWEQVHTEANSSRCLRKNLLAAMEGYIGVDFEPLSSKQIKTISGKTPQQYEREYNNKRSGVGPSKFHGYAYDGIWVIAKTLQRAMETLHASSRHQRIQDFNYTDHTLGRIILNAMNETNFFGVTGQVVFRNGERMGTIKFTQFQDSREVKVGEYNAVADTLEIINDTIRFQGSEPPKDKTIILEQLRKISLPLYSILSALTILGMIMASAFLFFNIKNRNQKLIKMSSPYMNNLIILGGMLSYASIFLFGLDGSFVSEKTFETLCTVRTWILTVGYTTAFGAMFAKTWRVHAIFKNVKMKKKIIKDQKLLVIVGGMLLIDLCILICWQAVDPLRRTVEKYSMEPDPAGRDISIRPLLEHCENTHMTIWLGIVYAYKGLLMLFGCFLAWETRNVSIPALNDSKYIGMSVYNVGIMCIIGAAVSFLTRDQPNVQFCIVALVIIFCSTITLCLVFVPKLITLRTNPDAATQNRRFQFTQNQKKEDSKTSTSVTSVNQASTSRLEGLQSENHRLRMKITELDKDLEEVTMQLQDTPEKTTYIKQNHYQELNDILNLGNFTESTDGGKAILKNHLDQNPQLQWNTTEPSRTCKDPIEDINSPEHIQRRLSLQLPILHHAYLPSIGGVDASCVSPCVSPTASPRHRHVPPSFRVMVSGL

Turning to `CCc1nc2c(c(=O)n(Cc3ccc(Cl)cc3)c(=O)n2Cc2ccccc2)n1C` [Example 1, 3-benzyl-1-(4-chlorobenzyl)-8-ethyl-7-methyl-3,7-dihydro-1H-purine-2,6-dione], the EC50 came to 6.33 µM.

`CCc1nc2c(c(=O)n(Cc3ccc(Cl)cc3)c(=O)n2C[Si](C)(C)C)n1C` [Example 9, 1-(4-Chlorobenzyl)-8-ethyl-7-methyl-3-[(trimethylsilyl)methyl]-3,7-dihydro-1H-purine-2,6-dione]: the EC50 stood at 2.1 µM.

`CCCn1c(=O)n(Cc2ccc(Cl)c(Cl)c2)c(=O)c2c1nc(CC)n2C` [Example 57, 1-(3,4-Dichlorobenzyl)-8-ethyl-7-methyl-3-propyl-3,7-dihydro-1H-purine-2,6-dione]: the EC50 amounted to 2.6 µM.

In the case of `CCCn1c(=O)n(Cc2ccc(Cl)cc2)c(=O)c2c1nc(Br)n2C` [Example 95, 8-bromo-1-(4-chlorobenzyl)-7-methyl-3-propyl-3,7-dihydro-1H-purine-2,6-dione], the EC50 amounted to 4.5 µM.

As for `CCc1nc2c(c(=O)n(Cc3ccc(Cl)c(Cl)c3)c(=O)n2CC(=O)C(C)(C)C)n1C` [Example 40, 1-(3,4-Dichlorobenzyl)-3-(3,3-dimethyl-2-oxobutyl)-8-ethyl-7-methyl-3,7-dihydro-1H-purine-2,6-dione], the EC50 amounted to 0.6 µM.

Take `CCc1nc2c(c(=O)n(Cc3ccc(Cl)cc3)c(=O)n2CC2COc3ccccc3O2)n1C` (stereo not shown) [Example 24, 1-(4-chlorobenzyl)-3-(2,3-dihydro-1,4-benzodioxin-2-ylmethyl)-8-ethyl-7-methyl-3,7-dihydro-1H-purine-2,6-dione]: the EC50 worked out at 5.1 µM.

With `CCC(=O)Cn1c(=O)n(Cc2ccc(Cl)cc2)c(=O)c2c1nc(CC)n2C` [Example 33, 1-(4-chlorobenzyl)-8-ethyl-7-methyl-3-(2-oxobutyl)-3,7-dihydro-1H-purine-2,6-dione], the half-maximal effective concentration (EC50) turned out to be 3.7 µM.

Usually EC50 stands for the concentration at which the effect is half-maximal.
